One compound from patent publication US12129313B2, “Anti-inflammatory use of peptide” (ENLITISA (SHANGHAI) PHARMACEUTICAL CO., LTD, priority 2017, dated 2024) can be followed below.

The structures appear in SMILES notation.

For one assay, the system named is IFN-γ. The assay is described as follows: Air pouch model: ELISA of exudate for IFN-γ. In kind it is in vivo, mice. The settings on record: ±SD, doses and timing per Table 1. The method, then:
(§1) Air pouches were produced by subcutaneous injection of sterile air (5 mL) into the intrascapular area of the mice. After three days, another injection of air (3 mL) was performed to maintain the pouches. In order to induce acute inflammation, three days after this final injection, animals received an injection of sterile carrageenan solution (CP Kelco, Taixing, Jiangsu Province, China; 1%, 0.5 mL; produced by adding 0.1 g of carrageenan powder into a beaker containing 10 mL of 0.9% saline solution and stirring). Mice were pre-treated with test samples or vehicle 1 hour before and 23 hours after the carrageenan injection into the subcutaneous air pouch. […]
(§2) Exudates were collected and volumes were quantified. The total number of cells was determined with a haematocytometer (ADVIA 2120 Hematology System, Siemens Healthineers). The exudates were centrifuged at 3000 rpm for 10 minutes at 4° C., and the supernatants were collected and stored at −20° C. for ELISA analysis using standard ELISA test kits (Biolegend™ from Dakewe Biotech Co., Beijing, China or Abcam™, Abcam (Shanghai) Trading Co. Ltd, China) and an ELISA reader (SH-1000 Hitachi, Japan) for tissue necrosis factor alpha (TNF-α), interleukin 1 beta (IL-1β), interleukin 6 (IL-6), interleukin 10 (IL-10), prostaglandin E2 (PGE2), interferon gamma (IFN-γ) and 5-hydroxytryptamine (5-HT; serotonin). […]
Background: ELISA stands for enzyme-linked immunosorbent assay.

For assay [1], the system named is C57BL/6 mice. The assay is described as follows: Air pouch model (carrageenan): exudate volume, pouch wall weight, exudate cell count. In kind it is in vivo. The protocol:
Healthy adult male C57BL/6 mice weighing between 20 and 30 g were supplied by Nanjing Biomedical Research Institute (NBRI) of Nanjing University, China. Prior to any experiments being conducted, mice were housed under standardized conditions (at a constant temperature or 22±2° C., with alternating 12 hour periods of light and darkness), and were fed on a standard mouse diet with water, for about a week.
General anesthesia was induced using intraperitoneal 3% chloral hydrate (Sinopharm Chemical Reagent Co., Ltd., Shanghai, China); 1 mL/10 g of body weight). The hair of the entire dorsum was shaved and depilated 1 day before sterile air injection.
(§3) Air pouches were produced by subcutaneous injection of sterile air (5 mL) into the intrascapular area of the mice. After three days, another injection of air (3 mL) was performed to maintain the pouches. In order to induce acute inflammation, three days after this final injection, animals received an injection of sterile carrageenan solution (CP Kelco, Taixing, Jiangsu Province, China; 1%, 0.5 mL; produced by adding 0.1 g of carrageenan powder into a beaker containing 10 mL of 0.9% saline solution and stirring). Mice were pre-treated with test samples or vehicle 1 hour before and 23 hours after the carrageenan injection into the subcutaneous air pouch. Animals were sacrificed 24 hours after the carrageenan injection.
The cavity was washed with 4 mL of sterile phosphate buffer solution (pH 7.4; prepared by dissolving 4 g of NaCl, 0.1 g of KCl, 1.749 g of Na2HPO4.12H2O and 0.1 g of KH2PO4 in ultrapure water, adjusting the pH to 7.4 with HCl and diluting with water to a total volume of 500 mL).
Exudates were collected and volumes were quantified. The total number of cells was determined with a haematocytometer (ADVIA 2120 Hematology System, Siemens Healthineers). The exudates were centrifuged at 3000 rpm for 10 minutes at 4° C., and the supernatants were collected and stored at −20° C. for ELISA analysis using standard ELISA test kits (Biolegend™ from Dakewe Biotech Co., Beijing, China or Abcam™, Abcam (Shanghai) Trading Co. Ltd, China) and an ELISA reader (SH-1000 Hitachi, Japan) for tissue necrosis factor alpha (TNF-α), interleukin 1 beta (IL-1β), interleukin 6 (IL-6), interleukin 10 (IL-10), prostaglandin E2 (PGE2), interferon gamma (IFN-γ) and 5-hydroxytryptamine (5-HT; serotonin).
After conducting some preliminary experiments to validate the model, an experiment was conducted in which mice were treated by administering test samples or vehicle in accordance with Table 1 below.
In Table 1, the M1-B, M2-B, M1-A and M2-A samples are MAP (Mefp-1) solutions of specified concentrations administered at different times relative to the carrageenan injection, as specified in the table. The solutions were prepared as follows. Blue mussels were harvested in the coastal area of Shandong Province, China. Mussel feet were collected, cut into small pieces and homogenized in an extraction buffer comprising 5% acetic acid in 4 mol/L of aqueous urea. The crude extracts were collected after centrifuging and then purified by liquid chromatography. The purified protein (semi-finished product; concentration 8 mg/mL; purity as measured by HPLC 91.72%; pH 4.2) was stored at 0° C. The solutions that were employed below were prepared by adding saline solution to this semi-finished product to obtain the concentrations described in Table 1.
Also in Table 1, “Test” is MAP Peptide, which was obtained from Innovagen AB, Sweden. The peptide was synthesized according to the relevant Mefp-1 amino acid sequence. The peptide powder was stored at −20° C. and dissolved in saline water at a concentration of 3.0 mg/mL, pH 5.5.
Dexamethasone (MedChemExpress, Shanghai, China) was obtained in powder form and dissolved in ultrapure water to obtain a solution with a concentration as described in Table 1.
All the substances listed in Table 1 were administrated topically by directly injecting into the air pouches.

The next assay relates to IL-6. The assay is described as follows: Air pouch model: ELISA of exudate for IL-6. In kind it is in vivo, mice. As to conditions: ±SD, doses and timing per Table 1. The protocol:
as §3
Exudates were collected and volumes were quantified. […] The exudates were centrifuged at 3000 rpm for 10 minutes at 4° C., and the supernatants were collected and stored at −20° C. for ELISA analysis using standard ELISA test kits (Biolegend™ from Dakewe Biotech Co., Beijing, China or Abcam™, Abcam (Shanghai) Trading Co. Ltd, China) and an ELISA reader (SH-1000 Hitachi, Japan) for tissue necrosis factor alpha (TNF-α), interleukin 1 beta (IL-1β), interleukin 6 (IL-6), interleukin 10 (IL-10), prostaglandin E2 (PGE2), interferon gamma (IFN-γ) and 5-hydroxytryptamine (5-HT; serotonin).

The subject of a further assay is TNF-α. Put plainly: Air pouch model: ELISA of exudate for TNF-α. In kind it is in vivo, mice. As to conditions: ±SD, doses and timing per Table 1. The method, then: as §1, §2
Assay [2] deals with C57BL/6 mice. The assay is described as follows: Air pouch model: histology scoring of pouch wall (HE stained slices). In kind it is in vivo. Also noted: key to Inflammation score / Edema Score / Motility score: 1 = mild, 2 = moderate, 3 = severe. The method, then: as §3
Skin biopsies were taken from the air pouches. A part of the biopsy was fixed in formalin (produced by adding ultra pure water to 50 mL of a 40% formaldehyde solution (Nanchang Rain Dew Experimental Equipment Co., Ltd., Nanchang, […] Provence, China) up to a total volume of 500 mL) and analyzed by histological embedding in paraffin wax, sectioning and staining.
The histological specimens were analysed and an inflammation score, a motility score, an edema score and […] were estimated as follows.
The HE stained slices were observed under an optical microscope and were scored (1, 2 or 3 points) according to the perceived inflammation level (in cases showing only a small amount of inflammatory cells scattered in the area—1 point (mild); in cases where many inflammatory cells were observed—2 points (moderate); and, in cases with diffuse infiltration—3 points (severe)). A similar scoring system was employed for edema levels (3 points for most severe and 1 point for mild) after overall observation. Motility scores represented the density of neutrophils, which employed the same methodology as that employed for inflammatory cells.

The mark [3] stands for this setting: histological description in words.

`C[C@@H]1C[C@H]2[C@@H]3CCC4=CC(=O)C=C[C@]4(C)[C@@]3(F)[C@@H](O)C[C@]2(C)[C@@]1(O)C(=O)CO` [Positive, Dexamethasone, reference compound]: the IFN-γ in the assay on IFN-γ is given as 388.83 ± 130.02. In the assay on C57BL/6 mice [1] (air pouch exudate, doses and timing per Table 1), the “Leukocyte (total cell count and classification)” value was 3.49e+06 mL⁻¹. In the assay with C57BL/6 mice [1] (mean ± SD, 24 hours after carrageenan, doses and timing per Table 1), the “Pouch Wall Weight” value was determined as 0.63 ± 0.09 g. In the assay on C57BL/6 mice [1] (mean ± SD, 24 hours after carrageenan, injected into air pouch, per mouse: Positive 200 μg, M1-B/M1-A/Test 1.5 mg, M2-B/M2-A 4.5 mg, timing 1 hour (Positive, -B, Test) or 6 hours (-A), Table 1), the Exudate volume stood at 3.3 ± 0.15 mL. The compound also gave an IL-6 with IL-6 of 428.05 ± 267.27. The same compound displayed a TNF-α with TNF-α of 65.08 ± 7.70. The compound further yielded a Motility score with C57BL/6 mice [2] (density of neutrophils, 1 to 3 points, doses and timing per Table 1) of 0.67. In the assay on C57BL/6 mice [2] (setting [3]), the “chronic inflammatory cell infiltration of the pouch wall” value was “moderate chronic inflammatory cell infiltration”, the “edema of the pouch wall” value is “moderate interstitial edema” and the “neutrophil infiltration of the pouch wall” value is on record as “a small amount of neutrophil infiltration”. In addition, the “Edema Score” value in the assay on C57BL/6 mice [2] (pouch wall histology, 1 mild to 3 most severe, doses and timing per Table 1) is listed as 1.67. This compound gave an Inflammation score in the assay with C57BL/6 mice [2] (pouch wall histology, 1 mild to 3 severe, doses and timing per Table 1) of 1.83. Moreover, the Sum with C57BL/6 mice [2] (sum of inflammation, edema and motility scores) is reported as 4.17.
